Measurements reported in US5886178A, “3-aroylbenzylpyridazinone derivatives” (Syntex (U.S.A.) Inc., priority 1997, dated 1999).

Experiments:
[1] = tested on: prostaglandin E2 synthesis; test: Inhibition of eicosanoid (PGE2) synthesis in vivo, carrageenan air-pouch model in rats; parameters: species or system rat; details: oral, male rats
Description: In this assay, an air-pouch is created in the rat and the PGE2 levels in the air-pouch exudate are measured by enzyme immunoassay. Briefly, male rats were anesthetized using a 60:40 CO2 :O2 mixture and subsequently injected subcutaneously with 20 ml of sterilized air, under aseptic conditions, in the proximal area of the dorsum. This injection of sterile air causes the creation of a subcutaneous "air pouch". The next day, a further 10 ml of sterile air was injected into the previously formed pouch using the same technique. […] Control rats received vehicle alone. After 30 minutes, 5 ml of a 0.5% solution of carrageenan (Sigma, Lambda Type IV) was injected into the air pouch. The rats were euthanized 3 hr after the compound administration. […] The total exudate volume was recorded, and the samples were analyzed for PGE2 and 6-keto PGF1 by ELISA (Titerzyme®, PerSeptive Diagnostics) and TxB2 by radioimmuno assay (New England Nuclear Research, Catalog No. NEK-037), according to the manufacturer's directions.
The mean concentrations of PGE2 were calculated for each group. The anti-inflammatory activity of test materials is expressed as the percent inhibition of PGE2 formation in the test group relative to the control group.

COX II [2] = target: T1, COX II (Homo sapiens, UniProt P35354); test: Inhibition of COX II in a cell based assay (human foreskin fibroblasts, PGE2 ELISA); parameters: host or cells: primary human foreskin fibroblasts (HFF), induced with PMA and human interleukin-1; details: human foreskin fibroblasts (HFF)
T1 sequence (P35354 18-604): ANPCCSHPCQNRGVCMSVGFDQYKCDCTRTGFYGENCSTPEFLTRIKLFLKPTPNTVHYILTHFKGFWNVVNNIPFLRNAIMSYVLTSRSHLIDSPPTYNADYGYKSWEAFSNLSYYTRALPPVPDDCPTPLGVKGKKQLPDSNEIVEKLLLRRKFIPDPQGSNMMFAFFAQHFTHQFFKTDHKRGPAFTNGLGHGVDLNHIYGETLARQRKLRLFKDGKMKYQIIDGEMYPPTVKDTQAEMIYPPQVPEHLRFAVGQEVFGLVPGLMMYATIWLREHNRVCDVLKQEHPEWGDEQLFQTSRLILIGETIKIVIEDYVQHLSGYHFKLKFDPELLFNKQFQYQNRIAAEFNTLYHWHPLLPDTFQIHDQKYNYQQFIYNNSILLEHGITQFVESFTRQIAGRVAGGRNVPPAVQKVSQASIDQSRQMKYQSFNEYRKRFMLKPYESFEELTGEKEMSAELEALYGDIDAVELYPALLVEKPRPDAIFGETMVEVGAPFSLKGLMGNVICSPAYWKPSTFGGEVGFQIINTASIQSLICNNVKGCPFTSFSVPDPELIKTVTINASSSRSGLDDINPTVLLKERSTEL
Description: (§1) The COX I and COX II inhibitory activity of compounds of this invention in a cell based assay was determined as described below.
The inhibitory activity of test compounds against cell associated COX-2 was measured using primary cultures of human foreskin fibroblasts (HFF). HFF cultures were obtained from ATCC, grown in DMEM medium (Gibco) and used between 13-30 passages. Cells were plated in 96-well microtiter plates at a density of 6-8×10^4 cells/well in DMEM containing 10% fetal calf serum (Sigma) and cultured at 37° C. until they became confluent. The medium was removed and the cells were washed once with PBS. COX-2 activity was induced by incubating the cells with fresh DMEM containing 0.1 μM phorbol 12-myristate 13-acetate (PMA, Sigma) and 1ng/ml of human interleukin-1 (Sigma) at 37° C. After 16 h the medium was removed and the cells were washed twice with phosphate buffered saline (PBS, Gibco). 200 μl/well of fresh medium containing desired concentrations of the test compounds in DMSO, or the carrier vehicle (control wells) was added and the cells incubated at 37° C. for 30 minutes; after which 5 μM calcium ionophore A23187 (Sigma) was added and the incubation was continued for an additional 10 minutes. The reaction was terminated by transferring the plates to ice. The culture supernatants were transferred and appropriately diluted, and the amount of prostaglandin E2 (PGE2) present in each supernatant was quantitated using an ELISA kit (Cayman Chemicals).
(§2) The COX I and COX II inhibitory activities in the cell based assay (expressed as IC50) of some compounds of the invention were: […]

COX I [3] = target: T2, COX I (Homo sapiens, UniProt P23219); test: Inhibition of COX I in a cell based assay (human promonocytic THP cells, TXB2 ELISA); parameters: endogenous in cells; host or cells: human promonocytic THP cells, PMA-treated
Description: as §1
The inhibitory activity of the test compounds against cell associated COX-1 was measured using human promonocytic THP cells. Cells were plated in 96-well microtiter plates at a density of 8×10^4 cells/well in RPMI-1640 medium (Gibco). COX-1 activity was initiated by incubating the cells with 0.1μM phorbol 12-myristate 13-acetate (PMA, Sigma) in dimethyl sulfoxide (DMSO, Aldrich) at 37° C. After 40-48 hours, the medium was removed, and the cells were washed twice with phosphate buffered saline (PBS, Gibco). 225 μl/well of fresh medium containing desired concentrations of the test compounds in DMSO, or the carrier vehicles (control wells), was added and the cells incubated at 37° C. for 30 minutes; after which 5 μM calcium ionophore A23187 (Sigma) was added and the incubation was continued for an additional 10 minutes. The reaction was terminated by transferring the plates to ice. The culture supernatants were transferred and appropriately diluted and the amount of thromboxane B2 (TXB2) present in each supernatant was quantitated using an ELISA kit (Cayman Chemicals).
as §2

COX II [4] = target: T1, COX II; test: Inhibition of COX II in vitro, partially purified enzyme, radiometric assay; assay type: biochemical; parameters: made in house; details: 20 micromolar arachidonic acid
Description: (§3) The COX I and COX II inhibitory activity of compounds of this invention in vitro was determined using partially purified COX I and COX II enzymes, prepared as described in J. Barnett et al, Biochim. Biophys.
(§4) COX I and COX II samples were diluted with Tris-HCl buffer (50 mM Tris-HCl, pH 7.9) containing 2 mM EDTA and 10% glycerol and reconstituted by incubating first with 2 mM phenol for 5 minutes and then with 1 micromolar hematin for an additional 5 minutes. 125 μl of the reconstituted COX I or COX II enzyme were preincubated for 10 minutes at room temperature in a shaking water bath with the compounds of the invention dissolved in 2-15 μl of DMSO or the carrier vehicles (control samples). The enzyme reaction was initiated by adding 25 μl of 1-[14C]arachidonic acid (80,000-100,000 cpm/tube; 20 micromolar final concentration) and the reaction was allowed to continue for an additional 45 seconds. The reaction was terminated by adding 100 μl of 2N HCl and 750 μl water. An aliquot (950 μl) of the reaction mixture was loaded onto a 1 ml C18 Sep-Pak column (J. T. Baker, Phillipsburg, N.J.) which had been previously washed with 2-3 ml methanol and equilibrated with 5-6 ml distilled water. Oxygenated products were quantitatively eluted with 3 ml of acetonitrile/water/acetic acid (50:50:0.1, v/v) and the radioactivity in the eluate determined in a scintillation counter.

COX I [5] = target: T2, COX I; test: Inhibition of COX I in vitro, partially purified enzyme, radiometric assay; assay type: biochemical; parameters: made in house; details: 20 micromolar arachidonic acid
Description: as §3, §4

[6] = Carrageenan-induced paw edema in the rat (anti-inflammatory activity); assay type: in vivo; details: 3 h, 30 mg/Kg, oral, female rats, read-out: % inhibition of increase in hind paw weight
Description: The anti-inflammatory activity of compounds of this invention was determined by measuring the inhibition of carrageenan-induced paw edema in the rat, using a modification of the method described in Winter C. k et al (1962) "Carrageenan-Induced Edema in Hind Paw of the Rat as an Assay for Anti-inflammatory Drugs". Proc. Soc. Exp. Biol. Med. 111: 544-547. This assay has been used as a primary in vivo screen for anti-inflammatory activity of most NSAIDs, and is considered predictive of human efficacy. Briefly, test materials were administered orally to female rats in a volume of 1 ml prepared as solutions or suspensions in an aqueous vehicle containing 0.9% NaCl, 0.5% sodium carboxymethyl-cellulose, 0.4% polysorbate 80, 0.9% benzyl alcohol and 97.3% distilled water. Control rats received vehicle alone. After 1 hr 0.05 ml of a 0.5% solution of Carrageenan (Type IV Lambda, Sigma Chemical Co.) in 0.9% saline was injected into the subplantar region of the right hind paw. Three hours later the rats were euthanized in a carbon dioxide atmosphere; hind paws were removed by severing at the tatso-crural joint; and the left and right paws were weighed. The increase in weight of the right paw over the left paw was obtained for each animal and the mean increases were calculated for each group. The anti-inflammatory activity of the test materials is expressed as the percent inhibition of the increase in hind paw weight of the test group relative to the vehicle-dosed control group.
The anti-inflammatory activities (expressed as % inhibition) of some of the compounds of the invention were: […]

T2 sequence (P23219 24-599): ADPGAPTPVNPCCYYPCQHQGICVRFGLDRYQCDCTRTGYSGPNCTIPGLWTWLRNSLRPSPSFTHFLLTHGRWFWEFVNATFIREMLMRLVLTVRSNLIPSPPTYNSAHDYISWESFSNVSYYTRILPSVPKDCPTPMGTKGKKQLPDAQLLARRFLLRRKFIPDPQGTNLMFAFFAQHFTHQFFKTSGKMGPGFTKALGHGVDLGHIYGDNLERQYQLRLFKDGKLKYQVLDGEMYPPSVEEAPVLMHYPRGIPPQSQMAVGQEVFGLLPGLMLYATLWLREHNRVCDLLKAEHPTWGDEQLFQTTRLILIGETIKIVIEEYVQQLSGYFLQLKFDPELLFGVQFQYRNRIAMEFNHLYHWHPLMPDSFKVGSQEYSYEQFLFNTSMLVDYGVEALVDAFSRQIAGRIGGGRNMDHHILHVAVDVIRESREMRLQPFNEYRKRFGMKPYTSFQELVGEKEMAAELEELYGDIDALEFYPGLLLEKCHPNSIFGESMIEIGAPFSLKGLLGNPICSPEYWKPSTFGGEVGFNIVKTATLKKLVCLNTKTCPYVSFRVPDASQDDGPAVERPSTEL

SMILES	IC50 (COX II [2]) [µM]	IC50 (COX I [3]) [µM]	IC50 (COX II [4]) [µM]	IC50 (COX I [5]) [µM]	% inhibition of air pouch PGE2 formation ([1]; 10 mg/Kg) [%]	inhibition in vivo at 30 mg/kg [6] [%]	% inhibition of air pouch PGE2 formation ([1]; 30 mg/Kg) [%]
CSc1ccc(C(=O)c2cccc(Cc3ccc(=O)[nH]n3)c2Cl)cc1 [Cpd 5, 6-[3-(4-methylthio-benzoyl)-2-chlorobenzyl]-2H-pyridazin-3-one]	–	–	–	–	32	–	–
CSc1ccc(C(=O)c2cccc(Cc3ccc(=O)[nH]n3)c2C)cc1 [Cpd 10, 6-[3-(4-methylthiobenzoyl)-2-methylbenzyl]-2H-pyridazin-3-one]	–	–	–	–	24	–	–
COc1ccc(C(=O)c2c(Cl)cc(C)cc2Cl)cc1Cc1ccc(=O)[nH]n1 [Cpd 28, 6-[3-(2,6-dichloro-4-methylbenzoyl)-6-methoxybenzyl]-2H-pyridazin-3-one]	3.4	–	2	100	–	21	–
COc1ccc(C(=O)c2c(Cl)cc(Cl)cc2Cl)cc1Cc1ccc(=O)n(C)n1 [Cpd 31, 6-[3-(2,4,6-trichlorobenzoyl)-6-methoxybenzyl]-2-methyl-2H-pyridazin-3-one]	4	–	1.3	1000	–	38	–
COc1ccc(C(=O)c2c(Br)cc(C)cc2Br)cc1Cc1ccc(=O)[nH]n1 [Cpd 39, 6-[3-(2,6-dibromo-4-methylbenzoyl)-6-methoxybenzyl]-2H-pyridazin-3-one]	1	26	1	100	–	33	–
COc1ccc(C(=O)c2c(C)cc(C)cc2C)cc1Cc1ccc(=O)[nH]n1 [Cpd 44, 6-[3-(2,4,6-trimethylbenzoyl)-6-methoxybenzyl]-2H-pyridazin-3-one]	1.2	16	1.3	100	–	19	–
Cc1ccc(C(=O)c2c(Cl)cc(Cl)cc2Cl)cc1Cc1ccc(=O)n(C)n1 [Cpd 62, 6-[3-(2,4,6-trichlorobenzoyl)-6-methylbenzyl]-2-methyl-2H-pyridazin-3-one]	0.3	–	0.18	300	–	33	–
O=C(c1cccc(Cc2ccc(=O)[nH]n2)c1)c1c(Cl)cc(Cl)cc1Cl [Cpd 78, 6-[3-(2,4,6-trichlorobenzoyl)benzyl]-2H-pyridazin-3-one]	0.3	–	2	740	–	22	–

Further lines, with some results ahead:

IC50 (COX II [2]) [µM]	IC50 (COX I [3]) [µM]	IC50 (COX II [4]) [µM]	IC50 (COX I [5]) [µM]	SMILES	% inhibition of air pouch PGE2 formation ([1]; 10 mg/Kg) [%]	inhibition in vivo at 30 mg/kg [6] [%]	% inhibition of air pouch PGE2 formation ([1]; 30 mg/Kg) [%]
0.3	19	0.6	540	COc1ccc(C(=O)c2c(Cl)cc(Cl)cc2Cl)cc1Cc1ccc(=O)[nH]n1 [Cpd 26, 6-[3-(2,4,6-trichlorobenzoyl)-6-methoxybenzyl]-2H-pyridazin-3-one]	–	24	–
0.48	–	0.18	310	Cc1ccc(C(=O)c2c(Cl)cc(Cl)cc2Cl)cc1Cc1ccc(=O)[nH]n1 [Cpd 61, 6-[3-(2,4,6-trichlorobenzoyl)-6-methylbenzyl]-2H-pyridazin-3-one]	–	–	–
0.2	21	0.16	423	O=C(c1ccc(Cl)c(Cc2ccc(=O)[nH]n2)c1)c1c(Cl)cc(Cl)cc1Cl [Cpd 73, 6-[3-(2,4,6-trichlorobenzoyl)-6-chlorobenzyl]-2H-pyridazin-3-one]	–	33	–
0.03	17	0.14	300	O=C(c1ccc(F)c(Cc2ccc(=O)[nH]n2)c1)c1c(Cl)cc(Cl)cc1Cl [Cpd 77, 6-[3-(2,4,6-trichlorobenzoyl)-6-fluorobenzyl]-2H-pyridazin-3-one]	–	–	53
